What all share (assay type): biochemical
Common to all, as to details: apparent Ki via Cheng-Prusoff from IC50; room temperature, 1 nM enzyme

One assay concerns the target factor Xa (Homo sapiens, UniProt P00742). In words: Enzyme assay, inhibition of factor Xa using purified enzyme (chromogenic peptide-p-nitroanilide substrate). As for the experimental part:
(§1) All enzyme as says are carried out at room temperature in 96-well microtiter plates using a final enzyme concentration of 1 nM. The concentrations of factor Xa and thrombin are determined by active site titration and the concentrations of all other enzymes are based on the protein concentration supplied by the manufacturer. Compounds according to the invention are dissolved in DMSO, diluted with their respective buffers and assayed at a maximal final DMSO concentration of 1.25%. Compound dilutions are added to wells containing buffer and enzyme and pre-equilibrated for between 5 and 30 minutes. The enzyme reactions are initiated by the addition of substrate and the color developed from the hydrolysis of the peptide-p-nitroanilide substrates is monitored continuously for 5 minutes at 405 nm on a Vmax microplate reader (Molecular Devices). Under these conditions, less than 10% of the substrate is utilized in all assays. […] The apparent Ki values are then determined according to the Cheng-Prusoff equation (IC50=Ki[1+[S]J/Km]) assuming competitive inhibition kinetics.

In a further assay the target is thrombin (Homo sapiens, UniProt P00734). In words: Enzyme assay, inhibition of thrombin using purified enzyme (chromogenic peptide-p-nitroanilide substrate). As for the experimental part:
as §1, with “Compound dilutions are added to wells containing buffer and enzyme and pre-equilibrated for between 5 and 30 minutes.” left out

A further assay concerns the target T1, trypsin (Bos taurus, UniProt P00760).
T1 construct: factor Xa, thromb in, trypsin; purchased
T1 sequence (P00760 24-246): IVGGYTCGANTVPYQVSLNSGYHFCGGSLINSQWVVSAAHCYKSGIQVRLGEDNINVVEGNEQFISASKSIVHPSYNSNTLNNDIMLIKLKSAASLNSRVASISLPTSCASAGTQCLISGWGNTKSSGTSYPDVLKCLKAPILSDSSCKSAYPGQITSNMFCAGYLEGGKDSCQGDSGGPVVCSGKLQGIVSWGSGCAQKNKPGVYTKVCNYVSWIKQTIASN
In words: Enzyme assay, inhibition of trypsin using purified enzyme (chromogenic peptide-p-nitroanilide substrate). As for the experimental part:
as §1

This is an account of results in patent publication US6140504A, “Substituted intermediate compounds for the preparation of n-[(aminoiminomethyl or aminomethyl)phenyl]propyl amides” (Aventis Pharmaceuticals Products Inc., priority 2000, dated 2000).

factor Xa, sequence (P00742 235-488 limits assumed): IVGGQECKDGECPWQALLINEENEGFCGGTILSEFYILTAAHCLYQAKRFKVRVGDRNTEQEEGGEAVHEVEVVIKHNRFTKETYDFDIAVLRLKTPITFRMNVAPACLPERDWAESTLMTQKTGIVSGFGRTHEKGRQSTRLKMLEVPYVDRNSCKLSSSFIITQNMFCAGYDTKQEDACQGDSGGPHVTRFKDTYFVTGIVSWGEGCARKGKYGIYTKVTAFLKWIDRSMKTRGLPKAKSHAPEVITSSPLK
factor Xa, sequence (P00742 41-179 partner limits assumed): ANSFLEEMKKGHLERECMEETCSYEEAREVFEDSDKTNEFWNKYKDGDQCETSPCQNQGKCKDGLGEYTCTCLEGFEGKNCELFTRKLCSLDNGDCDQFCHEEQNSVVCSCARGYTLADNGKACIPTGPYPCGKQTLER

`CC(=O)OCC(Cc1cccc(C(=N)N)c1)C(/C=C/c1ccccc1)NC(=O)c1ccc(-c2ccccc2)cc1` (stereo not drawn) [Compound 45]: the figures for the Ki at factor Xa, on thrombin and on trypsin were 94 nM, 477 nM and 129 nM, respectively.

Regarding `COc1ccc(-c2ccc(C(=O)NC(CCc3ccccc3)C(COC(C)=O)Cc3cccc(C(=N)N)c3)cc2)cc1OC` (stereo not drawn) [Compound 167], the Ki at factor Xa was determined as 19 nM; on thrombin, 1230 nM; at trypsin it was 46 nM.

As for `CN(C)Cc1cccc(-c2ccc(C(=O)NC(Cc3ccccc3)C(CO)Cc3cccc(C(=N)N)c3)cc2)c1` (stereo not drawn) [Compound 184], the Ki on factor Xa came to 27 nM; on thrombin it was 2710 nM; at trypsin it was 1720 nM.
